From US5162318A, “Benzimidazolinone derivatives” (Yamanouchi Pharmaceutical Co., Ltd., priority 1990, dated 1992)
Structures can show the parent of a compound that is named as a salt.

Legend:
[1] = test system: pulmonary surfactant secretion; experiment: Stimulatory effect on pulmonary surfactant secretion (disaturated phosphatidylcholine in bronchoalveolar lavage fluid); assay type: in vivo, guinea pig (male Hartley); conditions: guinea pigs; for stimulation of pulmonary surfactant secretion (in words): conclusion from Table 1, 50 mg/kg i.p.; for Pharmacological activity: % increase of disaturated phosphatidylcholine (DSPC) compared to control values: 50 mg/kg i.p. once, lavage 3 hours later, number of animals in parentheses, * significantly different from control values (p < 0.05), Compounds A and B not marked *
Description: The stimulatory effect of the compound of the present invention on pulmonary surfactant secretion In the experiment, male Hartley guinea pigs weighing 300-350 g were used. Methods 50 mg/kg of the test compound was intraperitoneally administered to guinea pigs once. Three hours later, the animals were anesthetized with 100 mg/kg of pentobarbital sodium and sacrificed by bleeding from the abdominal aorta and vena cava. Then, bronchoalveolar lavage with 10 ml/kg of ice-cooled physiological saline was performed twice. The combined bronchoalveolar lavage fluid was centrifuged at 1,000 rpm for 10 minutes at 4° C. From the supernatant of bronchoalveolar lavage fluid, the lipid was extracted in accordance with the method of Folch et al. (Journal of Biological Chemistry, 226, 497-502, 1957). The characteristic component of pulmonary surfactant, i.e., disaturated phosphatidylcholine was extracted by the method of Gilfillan et al. (Journal of Lipid Research, 24, 1651- 1656, 1983). The disaturated phosphatidylcholine was assayed with Nescoat PL Kit-K (Nippon Shoji Co., Ltd.) and the percent increase compared to a control group was determined (M. Takayama, et al.: Clin. Chim. Acta, 79, 93-98, 1977).

[2] = test system: secretion of the endogenous pulmonary surfactant; conditions: Post et al.: Lung 161, 349-359, 1983; cited from earlier work

Compound | stimulation of pulmonary surfactant secretion (in words) [1] | Pharmacological activity: % increase of disaturated phosphatidylcholine (DSPC) compared to control values [1] [%] | activity to promote secretion of the endogenous pulmonary surfactant (in words) [2]
CCN(CC)CCn1c(=O)[nH]c2ccccc21 [Compound B, 1,3Dihydro-1-(2-diethylaminoethyl)-2H-benzimidazol-2-one] | do not stimulate secretion of pulmonary surfactant but rather tend to decrease the secretion | -20.7 | –
Cl.O=c1[nH]c2ccc(Cl)cc2n1CCN1CCCC1 [19(4), 6-Chloro-1,3-dihydro-1-[2-(1-pyrrolidinyl)ethyl]-2H-benzimidazol-2-one hydrochloride] | – | 33.1 ± 8.3 | –
CN(C)CCCn1c(=O)[nH]c2ccccc21 [Compound A, 1,3Dihydro-1-(3-dimethylaminopropyl)-2H-benzimidazol-2-one] | do not stimulate secretion of pulmonary surfactant but rather tend to decrease the secretion | -9.3 | –
CN(C)CCn1c(=O)[nH]c2ccccc21.Cl [Example 12(5), 1,3-dihydro-1-(2-dimethylaminoethyl)-2H-benzimidazol-2-one hydrochloride] | – | 27.4 ± 4.9 | –
CN(C)CCn1c(=O)[nH]c2ccc(Br)cc21.Cl [3(5), 6-Bromo-1,3-dihydro-1-(2-dimethylaminoethyl)-2H-benzimidazol-2-one hydrochloride] | – | 27.9 ± 6.2 | –
CN(C)CCn1c(=O)[nH]c2ccc(Cl)cc21.Cl [11(4), 6-Chloro-1,3-dihydro-1-(2-dimethylaminoethyl)-2H-benzimidazol-2-one hydrochloride] | – | 37.8 ± 13.2 | –
CN(C)CCn1c(=O)[nH]c2c(Br)cc(Br)cc21.Cl [4(3), 4,6-Dibromo-1,3-dihydro-1-(2-dimethylaminoethyl)-2H-benzimidazol-2-one hydrochloride] | – | 32.3 ± 7.0 | –
Nc1c(Br)cc(Br)cc1CN[C@H]1CC[C@H](O)CC1 [ambroxol hydrochloride] | – | – | only substance known to have such activity
